Measured values as given in patent US9556231B2, “Beta-hairpin peptidomimetics as CXC4 antagonists” (POLYPHOR AG, priority 2011, dated 2017).
Bridge positions count the residues as written; N and C are the ends. Square brackets hold non-standard residues; d marks the D form. Peptide text beside a SMILES is read from it. Lys(iPr) = CC(C)NCCCC[C@H](N)C(=O)O; Orn(iPr) = CC(C)NCCC[C@H](N)C(=O)O; Dab = NCC[C@H](N)C(=O)O

Assays:
[1] = Cytotoxicity, MTT reduction assay, HELA cells; assay type: cell-based; details: human
Protocol: (§1) Namalwa cells (CXCR4 natively expressing non-adherent cells, ATCC CRL-1432) were cultured in RPMI1640 plus 10% FBS, and pen/strept. HELA cells were maintained in RPMI1640 plus 10% FBS, pen/strept and 2 mM L-glutamine. Cos-7 cells were grown in DMEM medium with […] glucose supplemented with 10% FCS, pen/strept and 2 mM L-glutamine. All cell lines were grown at 37° C. at 5% CO2. Cell media, media supplements, PBS-buffer, HEPES, antibiotic/antimycotic, pen/strept, non essential amino acid, L-glutamine, β-mercaptoethanol and sera were purchased from Gibco (Pailsey, UK). All fine chemicals were supplied by Merck (Darmstadt, Germany).
(§2) The cytotoxicity of the peptides to HELA cells (Acc57) and COS-7 cells (CRL-1651) was determined using the MTT reduction assay (T. Mossman, J. Immunol. Meth. 1983, 65, 55-63; M. V. Berridge, A. S. Tan, Arch. Biochem. Biophys. 1993, 303, 474-482). Briefly, the method was as follows: 4000 HELA cells/well and 3400 COS-7 cells/well were seeded and grown in 96-well microtiter plates for 24 h at 37° C. at 5% CO2. Thereafter, time zero (Tz) was determined by MTT reduction (see below). The supernatant of the remaining wells was discarded, and fresh medium and compounds in serial dilutions (12.5, 25 and 50 μM, triplicates; 0 μM, blank) were pipetted into the wells. After incubation of the cells for 48 h at 37° C. at 5% CO2 the supernatant was discarded again and 100 μL MTT reagent (0.5 mg/mL in RPMI1640 and DMEM, respectively)/well was added. Following incubation at 37° C. for 2-4 h the media were aspirated and the cells were spiked (100 μL isopropanol/well). The absorbance of the solubilized formazan was measured at 595 nm (OD595peptide). For each concentration averages were calculated from triplicates. The percentage of growth was calculated as follows: (OD595peptide−OD595Tz)/(OD595blank−OD595Tz)×100%. The GI50 (Growth Inhibition) concentrations were calculated for each peptide by using a trend line function for the concentrations (50, 25, 12.5 and 0 μM), the corresponding percentages and the value 50, (=TREND (C50:C0,%50:%0,50).

[2] = Cytotoxicity, MTT reduction assay, COS-7 cells; assay type: cell-based; details: African green monkey
Protocol: as §1, §2

[3] = Plasma stability, mouse plasma; assay type: in vitro ADME; details: 37° C.; for mouse pl. T1/2: up to 1440 min
Protocol: The stability of the peptides in human and mouse plasma was determined by applying the following method: 346.5 μL/deep well of freshly thawed human plasma (Basler Blutspende-dienst) and mouse plasma (Harlan Sera-Lab, UK), respectively, were spiked with 3.5 μL/well of compound dissolved in DMSO/H2O (90/10 [v/v], 1 mM, triplicate) and incubated at 37° C. At t=0, 15, 30, 60, 120, 240 and 1440 min aliquots of 50 μL were transferred to filtration plate wells containing 150 μL/well of 2% formic acid in acetonitrile. Following shaking for 2 min the occurred suspensions were filtrated by vacuum. 100 μL of each filtrate were transferred to a propylene microtiter plate and dried under N2. The residual solids were reconstituted by adding 100 μL/well of water/acetonitrile, 95/5 (v/v)+0.2% formic acid and analyzed by LC/MS as follows: Column: Waters, XBridge C18, mobile phases: (A) water+0.1% formic acid and (B) acetonitrile/water, 95/5 (v/v)+0.1% formic acid, gradient: 5%-100% (B) in 1.8 minutes, electrospray ionization, MRM detection (triple quadrupole). The peak areas were determined and triplicate values are averaged. The stability is expressed in percent of the initial value at t=0·(tx/t0×100). By using the TREND function of EXCEL (Microsoft Office 2003) T1/2 were determined.

[4] = Pharmacokinetic study (PK), i.v., CD-1 mice; assay type: in vivo; details: male, CD-1, in vivo, iv, mouse, i.v. 1 mg/kg; for level at 0.083 h / level at 0.25 h / level at 0.5 h / level at 1 h / level at 2 h / level at 3 h / level at 4 h: read-out: Calc. Conc. (plasma); for AUC(0-inf) / Cmax / clearance / half-life / Vd: one-compartmental model; for Vd: read-out: Vdis
Protocol: For the compounds of Ex. 1, Ex. 2, Ex. 3, Ex. 4, Ex. 5 and Ex. 6 pharmacokinetic studies after intravenous (i.v.) administration were performed.
30 grams (±20%) male CD-1 mice obtained from Charles River Laboratories Deutschland GmbH were used. The vehicle, phosphate buffered saline, was added to give a final concentration of 0.5 mg/mL of the compound. The volume was 2 mL/kg and the compound was injected to give a final intravenous dose of 1 mg/kg. Approximately 300-400 μL of blood was removed under light isoflurane anesthesia by cardiac puncture at predetermined time intervals (5, 15, 30 min and 1, 2, 3, 4, hours) and added to heparinized tubes. Plasma was removed from pelleted cells upon centrifugation and frozen at −80° C. prior to HPLC-MS analysis.
Aliquots of 50 μL each of mouse plasma of untreated aminals (“blank” mouse plasma) were spiked with known amounts of the compounds Ex. 1, Ex. 2, Ex. 3, Ex. 4, Ex. 5 and Ex. 6 in order to obtain 10 plasma calibration samples for each compound in the range 1-4000 ng/mL. Aliquots of 50 μL each of mouse plasma from treated animals were used as plasma study samples.
All plasma samples were spiked with an appropriate internal standard and extracted with acetonitrile containing 2% formic acid. Supernatants were evaporated to dryness under nitrogen and the remaining solids reconstituted in water/acetonitrile 95/5 (v/v)+0.2% formic acid.
Extracts were then analyzed by reverse-phase chromatography (Acquity BEH C18, 100×2.1 mm, 1.7 μm column, Waters for Ex. 1 and Acquity HSS C18 SB, 100×2.1 mm, 1.8 μm column, Waters for Ex. 2, Ex. 3, Ex. 4, Ex. 5 and Ex. 6), using the following conditions: Ex. 1, mobile phases: (A) water/acetonitrile 95/5 (v/v)+0.1% formic acid, (B) acetonitrile/water 95/5 (v/v)+0.1% formic acid, gradient: 1% (B) 0-0.1 min, 15% (B) 0.1-2.5 min for Ex. 1 and 1% (B) 0-0.1 min, 40% (B) 0.1-2.5 min for Ex. 2, Ex. 3, Ex. 4, Ex. 5 and Ex. 6. The detection and quantification was performed by mass spectrometry, with electrospray interface in positive mode and selective fragmentation of analytes (4000 Q Trap mass spectrometer, AB Sciex).
PK parameters were calculated by WinNonLin™ software version 5.3 (Pharsight-A Certara™ Company, Mountain View, Calif. 94041 USA) using a one-compartmental model analysis. PK parameters were determined by least-square fitting of the model to the experimental data.

[5] = 1440 min, read-out: mouse pl. cpd left at 1440 min

CC(C)NCCCC[C@@H]1NC(=O)[C@H](CCC(N)=O)NC(=O)[C@H](Cc2ccc(O)cc2)NC(=O)[C@@H]2CSSC[C@H](NC(=O)[C@H](Cc3ccc(O)cc3)NC(=O)[C@H](Cc3c[nH]cn3)NC(=O)[C@H](Cc3ccc(O)cc3)NC(=O)[C@@H]3CCCN3C(=O)[C@H]3CCCN3C1=O)C(=O)N[C@@H](CO)C(=O)N[C@@H](C)C(=O)N1CCC[C@@H]1C(=O)N[C@@H](CCCNC(C)C)C(=O)N[C@@H](CCCNC(=N)N)C(=O)N[C@@H](Cc1ccc(O)cc1)C(=O)N2 [Ex. 1, cyclo(-Tyr^1-His^2-Tyr^3-Cys^4-Ser^5-Ala^6-^DPro^7-Orn(iPr)^8-Arg^9-Tyr^10-Cys^11-Tyr^12-Gln^13-Lys(iPr)^14-^DPro^15-Pro^16-) disulfide bond between Cys^4 and Cys^11] (cyclo(YHYCSA[dP][Orn(iPr)]RYCYQ[Lys(iPr)][dP]P); disulfide 4-11)
GI50 at 48 h [1]: > 50 µM | GI50 at 48 h [2]: > 50 µM | remaining at 24 h [3, 5]: 100% | mouse pl. T1/2 [3]: 1440 min | level at 0.083 h [4]: 1720 ng/mL | level at 0.25 h [4]: 989 ng/mL | level at 0.5 h [4]: 947 ng/mL | level at 1 h [4]: 373 ng/mL | level at 2 h [4]: 129 ng/mL | level at 3 h [4]: 15 ng/mL | AUC(0-inf) [4]: 1150 ng·h/mL | Cmax [4]: 1830 ng/mL | clearance [4]: 14.5 mL/min/kg | half-life [4]: 24 min | Vd [4]: 0.547 L/kg

COc1ccc(C[C@@H]2NC(=O)[C@H](Cc3c[nH]cn3)NC(=O)[C@H](Cc3ccc(O)cc3)NC(=O)[C@@H]3CCCN3C(=O)[C@H]3CCCN3C(=O)[C@H](CCCCNC(C)C)NC(=O)[C@H](CCC(N)=O)NC(=O)[C@H](Cc3ccc(O)cc3)NC(=O)[C@@H]3CSSC[C@H](NC2=O)C(=O)N[C@@H](CO)C(=O)N[C@@H](C)C(=O)N2CCC[C@@H]2C(=O)N[C@@H](CCCNC(C)C)C(=O)N[C@@H](CCCNC(=N)N)C(=O)N[C@@H](Cc2ccc(O)cc2)C(=O)N3)cc1 [Ex. 2, cyclo(-Tyr^1-His^2-Tyr(Me)^3-Cys^4-Ser^5-Ala^6-^DPro^7-Orn(iPr)^8-Arg^9-Tyr^10-Cys^11-Tyr^12-Gln^13-Lys(iPr)^14-^DPro^15-Pro^16-), disulfide bond between Cys^4 and Cys^11] (cyclo(YHY(Me)CSA[dP][Orn(iPr)]RYCYQ[Lys(iPr)][dP]P); disulfide 4-11)
GI50 at 48 h [1]: > 41 µM | GI50 at 48 h [2]: > 50 µM | remaining at 24 h [3, 5]: 100% | mouse pl. T1/2 [3]: 1440 min | level at 0.083 h [4]: 1430 ng/mL | level at 0.25 h [4]: 1300 ng/mL | level at 0.5 h [4]: 836 ng/mL | level at 1 h [4]: 578 ng/mL | level at 2 h [4]: 234 ng/mL | level at 3 h [4]: 68 ng/mL | level at 4 h [4]: 22 ng/mL | AUC(0-inf) [4]: 1520 ng·h/mL | Cmax [4]: 1580 ng/mL | clearance [4]: 11 mL/min/kg | half-life [4]: 42 min | Vd [4]: 0.635 L/kg

CC(C)NCCCC[C@@H]1NC(=O)[C@H](CCC(N)=O)NC(=O)[C@H](Cc2ccc(O)cc2)NC(=O)[C@@H]2CSSC[C@H](NC(=O)[C@H](C)NC(=O)[C@H](Cc3c[nH]cn3)NC(=O)[C@H](Cc3ccc(O)cc3)NC(=O)[C@@H]3CCCN3C(=O)[C@H]3CCCN3C1=O)C(=O)N[C@@H](CO)C(=O)N[C@@H](C)C(=O)N[C@H](Cc1ccc(O)cc1)C(=O)N[C@@H](CCN)C(=O)N[C@@H](CCCNC(=N)N)C(=O)N[C@@H](Cc1ccc(O)cc1)C(=O)N2 [Ex. 3, cyclo(-Tyr^1-His^2-Ala^3-Cys^4-Ser^5-Ala^6-^DTyr^7-Dab^8-Arg^9-Tyr^10-Cys^11-Tyr^12-Gln^13-Lys(iPr)^14-^DPro^15-Pro^16-), disulfide bond between Cys^4 and Cys^11] (cyclo(YHACSA[dY][Dab]RYCYQ[Lys(iPr)][dP]P); disulfide 4-11)
GI50 at 48 h ([1]; MTT, 48 h, up to 50 μM, read-out: Cytotoxicity Hela Cells GI50): > 50 µM | GI50 at 48 h ([2]; MTT, 48 h, up to 50 μM, read-out: Cytotoxicity Cos-7 Cells GI50): > 50 µM | remaining at 24 h, 10 μM [3, 5]: 98% | mouse pl. T1/2 [3]: 1440 min | level at 0.083 h [4]: 1170 ng/mL | level at 0.25 h [4]: 999 ng/mL | level at 0.5 h [4]: 442 ng/mL | level at 1 h [4]: 402 ng/mL | level at 2 h [4]: 136 ng/mL | level at 3 h [4]: 26 ng/mL | level at 4 h [4]: 12 ng/mL | AUC(0-inf) [4]: 898 ng·h/mL | Cmax [4]: 1310 ng/mL | clearance [4]: 18.6 mL/min/kg | half-life [4]: 30 min | Vd [4]: 0.762 L/kg
